Experimental data reported in patent US20140221390A1, “PROPHYLACTIC AND/OR THERAPEUTIC AGENT FOR NON-ALCOHOLIC STEATOHEPATITIS” (Kowa Company, Ltd., priority 2010, published 2014).
Where a name gives a salt, the structure may show the parent alone.

Columns and labels:
Assay type in all cases: in vivo
[1] = tested on: LDL receptor-knockout mice; experiment: Effect in LDL receptor-knockout mouse NASH model (Western diet); settings: 12 weeks
Excerpt: An effect in LDL receptor-knockout mice fed with the Western diet which were known to develop fatty liver and hepatic inflammation, i.e., characteristic conditions of NASH (Yoshimatsu M. et al. Int J Exp Pathol., 85(6), 335-43 (2004)) was examined. In the present test, monohydrochloride of 2-[4-[2-(benzimidazol-2-ylthio)ethyl]piperazin-1-yl]-N-[2,4-bis(methylthio)-6-methyl-3-pyridyl]acetamide (hereinafter referred to as “compound A”) was used.
Male LDL receptor-knockout mice (B6.129S7-Ldlr<tm1Her>/J, Jackson Laboratories) were used for the experiment. The mice aged around 8 weeks were allowed to freely intake Teklad Custom Research Diet (TD.88137, manufactured by Harlan Teklad) as a Western diet for 12 weeks to cause them to develop NASH.
The mice were separated into a control group (hydrochloride added purified water) and a compound A (3 mg/kg, as free form) administered group so that there is no difference in the weights between the groups.
The dose was calculated by 10 mL/kg weight. Hydrochloride added purified water and each drug solution were orally administered to the control group and the compound A administered group, respectively, at an interval of at least 6 hours, once in the morning and once in the afternoon. The mice aged around 8 weeks were fed with the Western diet, and the drug solution was administered at the same time. The dosing period was 12 weeks.
After the end of administration, the mice were fasted overnight. The blood was collected from the abdominal portion of vena cava under anesthesia with pentobarbital sodium (50 mg/kg) and the plasma was fractionated. After collecting the blood, the liver was extracted and frozen for preservation. A part of the liver was frozen in ISOGEN (NIPPON GENE, CO., LTD.) and preserved to analyze the gene expression.
Total cholesterol (TC) and triglyceride (TG) in the plasma were measured using Cholesterol E Test Wako and Triglyceride E Test Wako (both manufactured by Wako Pure Chemical Industries, Ltd.), respectively. Measurement of liver lipid was performed in the following manner. Chloroform and methanol (at a ratio of 2:1) were added to the frozen and preserved liver, which was homogenized, and the resultant mixture was allowed to stand at 4° C. longer than overnight, followed by filtration. A part of the filtrate was fractionated, followed by evaporation and drying. The resultant product was dissolved in isopropanol. TC and TG concentrations were measured using Cholesterol E-Test Wako and Triglyceride E-Test Wako, respectively.
Liver gene expression analysis was performed by extracting RNA from the liver and measuring expression levels of TNF-α genes and CD11c genes in adhesion molecules belonging to an integrin family of macrophages by realtime RT-PCR. The liver was homogenized in ISOGEN to extract RNA according to the instruction manual. The concentration of RNA was measured using a spectrophotometer (ND-1000, NanoDrop Technologies, Inc.). Reverse transcription of mRNA from total RNA was performed using High Capacity cDNA Reverse Transcription Kit (Applied Biosystems) to synthesize cDNA. Gene expression analysis was performed by an intercalator method using SYBR green I or a method using Taqman Probe. Realtime RT-PCR was performed using 7900HT Fast Real-Time PCR System (Applied Biosystems). β-actin was used as an internal standard. After correction with β-actin, the expression levels of respective genes were compared with one another. The sequences of the used primers and probes are as follows: […]
The statistical work was performed using the Windows (registered trademark) version of the SAS Preclinical Package (SAS Institute Japan Inc.).

C57BL/6N-NASH mice = experiment: Effect in murine NASH-hepatoma models (C57BL/6N-NASH mice); settings: 100 mg/kg mixed in feed, 5 weeks
Excerpt: Murine NASH-hepatoma models (brand name: C57BL/6 N-NASH mice) developed in Stelic Institute & Co. (See Japanese Patent Application Laid-Open (JP-A) No. 2009-178143) are provided by Charles River Laboratories Japan, Inc. The murine models develop NASH by initiation of insulin resistance and feeding with a high fat diet. The murine models show changes which histologically reflect the conditions of human NASH. The fatty liver (before 6 weeks old) progresses to NASH (7 weeks old), liver cirrhosis (after 10 weeks old), and liver cancer (after 16 weeks old). Accordingly, it is said that the models are useful in research and development of therapeutic drugs for NASH (See Data of SIAM Mice C57BL/6N-NASH Model Mice (http://www.crj.co.jp/topics/pdf/69/6375030/B6N_NASH_leaflet—091019.pdf)).
Then, the effect of the compound A was examined using murine NASH-hepatoma models with a more serious condition than the knockout mice used in Example 1.
Male C57BL/6N-NASH mice (Charles River Laboratories Japan, Inc.) were used for the experiment. Streptozotocin was administered to the mice aged 1 to 2 days and they were fed with a high fat diet (D12492, Research Diet) from 4 weeks old. The mice were purchased at 6 weeks old and continuously fed with the same high fat diet (hereinafter, the mice are referred to as “C57BL/6N-NASH mice”). As a normal control group, normal mice (C57BL/6N, 6 weeks old, Charles River Laboratories Japan, Inc.) were purchased at the same time and they were fed with an ordinary diet (CE-2, CLEA Japan, Inc.) (hereinafter referred to as “normal mice”).
C57BL/6N-NASH mice were used for a control group and a compound A (100 mg/kg) administered group. The number of mice in each group was six. As normal mice (control group), 6 normal mice (C57BL/6N mice) were used.
The compound A and feeds were mixed to feed the mice. C57BL/6N-NASH mice with NASH aged 7 weeks were fed with the feed mixture. The dosing period was 5 weeks.
After the end of administration, the mice were fasted for 4 hours. The blood was collected from the abdominal portion of vena cava under anesthesia, and the plasma was fractionated. After collecting the blood, the liver was extracted. A part of the liver was frozen for preservation, and the other part was embedded in paraffin in a usual manner. Plasma lipid and plasma ALT levels were measured using an autoanalyzer (Labospect003, Hitachi, Ltd.). Measurement of liver lipid was performed in the following manner. That is, chloroform and methanol (at a ratio of 2:1) were added to a part of the frozen and preserved liver, which was homogenized, and the resultant mixture was allowed to stand at 4° C. overnight, followed by filtration. A part of the filtrate was fractionated, followed by evaporation and drying. The resultant product was dissolved in isopropanol. The concentrations of total cholesterol (TC) and triglyceride (TG) were measured using Cholesterol E-Test Wako and Triglyceride E-Test Wako, respectively. Further, paraffin sections and HE-stained specimens were produced to observe liver tissues.

KK-A^y mice = experiment: Effect in KK-Ay mice fed with MCD diet (NASH model); settings: 7 weeks
Excerpt: Rodent models fed with methionine-choline deficient diet (MCD diet) are widely used as NASH models (See Hebbard L, George J.: Animal models of nonalcoholic fatty liver disease Nat Rev Gastroenterol Hepatol. 2011 January; 8 (1):35-44. Epub 2010 Nov. 30.). Among them, models of KK-A^y mice are known to cause marked steatohepatitis and fibrosis (See Okumura K., Ikejima K., Kon K., Abe W., Yamashina S., Enomoto N., Takei Y. and Sato N. (2006) Exacerbation of dietary steatohepatitis and fibrosis in obese, diabetic KK-A^y mice Hepatology Research 2006 36:3 (217-228)). It is considered that the mice are excellent models to examine the drug effect on NASH.
Male KK-A^y mice (KK-A^y/TaJcl mice, 12 weeks old, were purchased from CLEA Japan, Inc.) were used for the experiment. The mice were fed with the MCD diet for 7 weeks to cause NASH.
The mice were separated into a control group, a compound A (30 mg/kg) administered group, and a compound A (200 mg/kg) administered group. The drug and feeds were mixed to feed the mice. The dosing period was 7 weeks.
The compound A and feeds were mixed to feed the mice. The mice was fed with the MCD diet, and fed with the feed mixture at the same time.
The methods were performed, in the same manner as in the case of the murine NASH-hepatoma models described in Example 2. In addition to the HE-stained specimens for observing liver tissues, Azan-stained specimens were also prepared.

Compound: CSc1cc(C)nc(SC)c1NC(=O)CN1CCN(CCSc2nc3ccccc3[nH]2)CC1 [compound A, monohydrochloride of 2-[4-[2-(benzimidazol-2-ylthio)ethyl]piperazin-1-yl]-N-[2,4-bis(methylthio)-6-methyl-3-pyridyl]acetamide]
- total cholesterol (TC) in the plasma ([1]; 3 mg/kg as free form, oral, twice daily, Western diet, FIG. 1A): no significant effect
- triglyceride (TG) in the plasma ([1]; 3 mg/kg as free form, oral, twice daily, Western diet, FIG. 1B): no significant effect
- total cholesterol (TC) in the liver ([1]; 3 mg/kg as free form, oral, twice daily, Western diet, FIG. 2A): significant decrease
- triglyceride (TG) in the liver ([1]; 3 mg/kg as free form, oral, twice daily, Western diet, FIG. 2B): significant decrease
- macrophage CD11c gene expression in the liver ([1]; 3 mg/kg, realtime RT-PCR, corrected with β-actin, FIG. 3A): significant decreases
- inflammatory cytokine TNF-α expression in the liver ([1]; 3 mg/kg, realtime RT-PCR, corrected with β-actin, FIG. 3B): significant decreases
- plasma lipid (C57BL/6N-NASH mice; from 7 weeks old): no effect
- plasma ALT level (C57BL/6N-NASH mice; vs NASH control group, FIG. 4): reduced
- hepatic TC level (C57BL/6N-NASH mice; vs NASH control group, FIG. 5): reduced
- hepatic TG level (C57BL/6N-NASH mice; vs NASH control group, FIG. 6): reduced
- development of lipid-droplet deposition in liver (HE-stained) (C57BL/6N-NASH mice; FIG. 7): inhibited
- plasma ALT level (KK-A^y mice; 200 mg/kg mixed in feed, FIG. 8): significantly reduced
- plasma lipid (KK-A^y mice; 30 or 200 mg/kg mixed in feed): no effect
- hepatic TC level (KK-A^y mice; mixed in feed, FIG. 9): significantly reduced
- hepatic TG level (KK-A^y mice; mixed in feed, FIG. 10): significantly reduced
- development of lipid-droplet deposition in the liver (HE-stained) (KK-A^y mice; mixed in feed, FIG. 11): inhibited
- development of fibrosis in the liver (Azan-stained) (KK-A^y mice; mixed in feed, FIG. 12): inhibited
